Results taken from PubChem BioAssay (NCI).
Several values for one entry are separate records, joined by “and”; a condition that tells them apart may be missing. Equal entries are not always repeated.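 Results reflect a 48-hour exposure of cells in 96-well plates to compound at five concentrations. Here, GI50 denotes the concentration required for 50% inhibition of growth. TGI marks complete inhibition of growth.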

Experiments:
Test in all cases: NCI tumour cell line growth inhibition, 48 h
[1] = test system: MDA-N
[2] = test system: HOP-18 NSCLC
[3] = test system: DMS 273 small cell lung
[4] = test system: DMS 114 small cell lung
[5] = test system: SNB-78 CNS
[6] = test system: KM20L2 colon
[7] = test system: LXFL 529 NSCLC
[8] = test system: XF 498 CNS
[9] = test system: RXF-631 renal
[10] = test system: P388/ADR leukemia
[11] = test system: P388 leukemia
[12] = test system: SN12K1 renal

Compound | TGI [1] | TGI [2] | TGI [3] | TGI [4] | TGI [5] | TGI [6] | TGI [7] | TGI [8] | further results
COC12C(COC(=O)NCCO)C3=C(C(=O)C(C)=C(N)C3=O)N1CC1NC12 (stereo not given) | > 264 µM |  |  |  |  |  |  |  | 
Nc1nc(=S)c2c(ncn2CCO)[nH]1 |  | > 100 µM | > 100 µM | > 100 µM | > 100 µM | > 100 µM | > 100 µM |  | 
Cc1ccc(S(=O)(=O)NCCCCC(N)C(=O)O)cc1 (stereo not given) | > 100 µM |  |  |  |  |  |  |  | 
O=[N+]([O-])c1ccc(-c2ccc(C3=Nn4c(CNc5ccccc5Cl)nnc4SC3)o2)cc1 |  |  | > 100 µM |  | > 100 µM | > 100 µM | > 100 µM | > 100 µM | 
CC1NOC(=O)C1N=Nc1ccc(Cl)cc1Cl (stereo not given) |  | 50.4 µM | 56.8 µM | 53.9 µM | 69.2 µM | > 100 µM | 45.3 µM | 45 µM | TGI [9]: > 100 µM
O=C(O)CN(CCN(CC(=O)O)CC(=O)O)CC(=O)O.[Mn+2] | > 100 µM |  |  |  |  |  |  |  | GI50 [1]: > 100 µM
CC(=O)O[C@H]1CC2C(C3CC[C@H](C(C)CCC(=O)O)[C@]31C)[C@H](OC(C)=O)C[C@@H]1CC3(CC[C@]21C)OOC1(CCC(C)CC1)OO3 (stereo not given in full) | 19.9 µM and 15 µM |  |  |  |  |  |  |  | 
CC(=O)Nc1ccc(C2CC(c3ccc([N+](=O)[O-])cc3)=Nc3ccccc3S2=O)cc1 (stereo not given) |  | > 100 µM | 35.8 µM | 69.1 µM |  | 57.5 µM | 34.6 µM | 55.8 µM | 
N#CC1CC(c2ccccc2)Nc2cc(Cl)ccc2N1 (stereo not given) |  | > 100 µM | > 100 µM | 97.3 µM | > 100 µM | > 100 µM | > 100 µM | 92 µM | 
CCc1cccc(CC)c1NC(=O)/C(Cl)=C(/Cl)C(=O)O |  | 49.5 µM | > 85.8 µM | 40.9 µM | 65.8 µM | > 71 µM | 20.9 µM | 46.5 µM | 
CCOC(=O)C1=C(NC)OCC1=O |  |  | > 100 µM | > 100 µM | > 100 µM | > 100 µM | > 100 µM | > 100 µM | TGI [9]: > 100 µM
[O]=[V]([OH])([OH])[OH] | > 100 µM |  |  |  |  |  |  |  | GI50 [1]: 94.6 µM
O=C1N[C@@H]2CCCC[C@@H]2C12CCCCC2 |  | > 100 µM |  |  | > 100 µM | > 100 µM | > 100 µM | > 100 µM | TGI [9]: > 100 µM
O=C1c2ccccc2C(=O)c2c(NC3CCCCC3)ccc(Nc3ccc(S(=O)(=O)O)cc3)c21 | > 100 µM |  |  |  |  |  |  |  | 
COc1cc(/C=C2\NC(=O)C(Cc3cc(OC)c(OC)c(C)c3OC)N(C(C)=O)C2=O)c(OC)c(C)c1OC (stereo not given) |  | 99.6 µM | > 100 µM | > 100 µM |  | > 100 µM | > 100 µM |  | 
CCOC(=O)/C(=C\c1cccc(C)c1)C(C)=O | 31.4 µM |  |  |  |  |  |  |  | 
O=C(NCCc1ccccc1)C1C(=O)C(=O)N(CCc2ccccc2)C1=O (stereo not given) |  |  | > 100 µM |  | > 100 µM | > 100 µM | > 100 µM | > 100 µM | TGI [9]: > 100 µM
Cc1ccccc1C(CCCO)C(=O)O (stereo not given) |  |  | > 100 µM | > 100 µM | > 100 µM |  | > 100 µM | > 100 µM | 
CCCC(=O)CC(C)C(=O)C(=O)NC12CC3CC(CC(C3)C1)C2 (stereo not given) |  | > 100 µM | > 100 µM |  | > 100 µM | > 100 µM |  | > 100 µM | 

Compound | TGI [1] | TGI [2] | TGI [3] | TGI [4] | TGI [5] | TGI [6] | TGI [7] | TGI [8] | further results
O=NN(CCCl)C(=O)NC1CCC(CC(=O)O)CC1 (stereo not given) |  | > 100 µM | > 100 µM | > 100 µM | > 100 µM | > 100 µM | > 100 µM | > 100 µM | TGI [10]: > 100 µM and 13.7 µM; TGI [11]: > 62.3 µM and 16.7 µM; TGI [12]: > 100 µM
O=C(CCCC(=O)Nc1ccc(Cl)cc1Cl)CC(=O)c1ccc2ccccc2c1 |  | > 100 µM | > 100 µM | > 100 µM | > 100 µM | > 100 µM | > 100 µM |  | TGI [9]: > 100 µM
N#Cc1ccc(Sc2nc3ccccc3[nH]2)cc1 |  | > 100 µM | > 100 µM | > 100 µM | > 100 µM |  | > 100 µM |  | 
OC(c1ccccc1Br)(c1ccccc1Br)C(F)(F)F |  | > 100 µM | 40.7 µM | 38.2 µM |  | 52.3 µM | > 100 µM | 38.2 µM | 
CCCCCCCCCCCC[C@@H](O)[C@H]1CC[C@H]([C@H](O)CC[C@H](O)[C@@H]2CC[C@@H](CCCCCCCC3=C[C@H](C)OC3=O)O2)O1 | > 50 µM |  |  |  |  |  |  |  | GI50 [1]: > 50 µM
CC(=O)[CH-]C(=O)c1ccccc1.[C-]#[O+].[C-]#[O+].[Ir] |  | > 100 µM |  |  |  |  |  |  | GI50 [2]: > 100 µM
Cn1c(=O)c2nc3sc4c(n3c2n(C)c1=O)C(=O)c1ccccc1C4=O | > 100 µM | > 100 µM | > 100 µM | > 100 µM | > 100 µM | > 100 µM | > 100 µM | > 100 µM | TGI [9]: > 100 µM
CC(=O)Oc1c(C(=O)[O-])cc(C(C)C)cc1C(C)C.CC(=O)Oc1c(C(=O)[O-])cc(C(C)C)cc1C(C)C.CC(=O)Oc1c(C(=O)[O-])cc(C(C)C)cc1C(C)C.CC(=O)Oc1c(C(=O)[O-])cc(C(C)C)cc1C(C)C.[Cu+2].[Cu+2] | 33.4 µM |  |  |  |  |  |  |  | GI50 [1]: 18.8 µM
CC(=O)OCC(=O)[C@@]1(O)CC[C@H]2[C@@H]3C[C@H](C)C4=CC(=O)C=C[C@]4(C)[C@@]3(F)[C@@H](O)C[C@@]21C |  |  | > 100 µM | > 100 µM | > 100 µM | > 100 µM |  | > 100 µM | TGI [9]: > 100 µM
COc1cc(OC)c(OC)cc1/C=C/c1nc2ccccc2s1 | > 100 µM |  |  |  |  |  |  |  | 
C[C@H](C(=O)O)C(=O)NC(=O)N(Cc1ccccc1)N=O |  | 0.0783 µM | > 100 µM | > 100 µM | > 100 µM | > 100 µM | > 100 µM | > 100 µM | 
CC(C)Cc1ccc(C(C)/C=C2\CCC(CN(C)C)C2=O)cc1 (stereo not given) | 22.2 µM | 32.2 µM |  | 46.1 µM | 36.3 µM | 51.4 µM | 22.6 µM | 36.5 µM | 
c1ccc(C(c2ccccc2)c2ccccn2)cc1 |  | > 100 µM | > 100 µM | > 100 µM | > 100 µM | > 100 µM |  | > 100 µM | TGI [9]: > 100 µM
COc1ccc2c(C(=O)O)cc3ccccc3c2c1OC |  | 28.9 µM | 53.4 µM | 38 µM | 33.4 µM | 58.1 µM | 30.9 µM | 29.2 µM | 
CCO/C=C1\SC(=S)N(c2ccc(OCC)cc2)C1=O | > 100 µM |  |  |  |  |  |  |  | 
O=C1C2C3C=CC(C2C(=O)N1CO)C1C2C(=O)N(CO)C(=O)C2C31 (stereo not given) |  | 76.7 µM | > 59.1 µM | > 58.6 µM | > 100 µM | > 31.6 µM | > 100 µM | > 100 µM | TGI [9]: > 100 µM
COc1ccc2nc(NC(=O)C(=O)CC(=O)c3ccc([N+](=O)[O-])cc3)sc2c1 |  |  | > 100 µM | > 100 µM |  | > 100 µM | > 100 µM | > 100 µM | TGI [9]: > 100 µM
COC(=O)C1=C(C(=O)OC)C2(c3ccccc3)OC1(c1ccccc1)c1cc3ccccc3cc12 |  | 2.45 µM | 3.7 µM |  |  | 3.76 µM | 2.63 µM |  | TGI [9]: 4.69 µM
